Measured values reported in ChEMBL document CHEMBL3045041, “Synthesis of novel aryl(4-substituted pyridin-3-yl)methyl carbamates and their herbicidal activity” (J Pestic Sci, 2012).

Assays:
Oryza sativa [1] = test: Phytotoxicity against Oryza sativa cv. Kinuhikari (rice) planted at 3 cm depth measured after 20 to 25 days; assay type: organism-based; conditions: in vivo
[2] = tested on: Schoenoplectiella juncoides; test: Herbicidal activity against Schoenoplectiella juncoides under greenhouse condition compound treated at 0.5 leaf stage measured after 14 to 20 days; assay type: functional
Echinochloa oryzicola [3] = test: Herbicidal activity against Echinochloa oryzicola under greenhouse condition compound treated at emergence stage measured after 14 to 20 days; assay type: functional
Echinochloa oryzicola [4] = test: Herbicidal activity against Echinochloa oryzicola at 100 g a.i/ha treated at emergence stage measured after 26 days by outdoor concrete pot test; assay type: functional
Echinochloa oryzicola [5] = test: Herbicidal activity against Echinochloa oryzicola at 200 g a.i/ha treated at emergence stage measured after 26 days by outdoor concrete pot test; assay type: functional
Echinochloa oryzicola [6] = test: Herbicidal activity against Echinochloa oryzicola under greenhouse condition compound treated at 2.5 leaf stage measured after 14 to 20 days; assay type: functional
Elatine triandra [7] = test: Herbicidal activity against Elatine triandra at 100 g a.i/ha treated at emergence stage measured after 26 days by outdoor concrete pot test; assay type: functional
Elatine triandra [8] = test: Herbicidal activity against Elatine triandra at 200 g a.i/ha treated at emergence stage measured after 26 days by outdoor concrete pot test; assay type: functional
Rotala indica [9] = test: Herbicidal activity against Rotala indica at 200 g a.i/ha treated at 2.3-leaf stage measured after 26 days by outdoor concrete pot test; assay type: functional
Rotala indica [10] = test: Herbicidal activity against Rotala indica at 300 g a.i/ha treated at 2.3-leaf stage measured after 26 days by outdoor concrete pot test; assay type: functional
Rotala indica [11] = test: Herbicidal activity against Rotala indica at 100 g a.i/ha treated at 1.6-leaf stage measured after 26 days by outdoor concrete pot test; assay type: functional
Rotala indica [12] = test: Herbicidal activity against Rotala indica at 200 g a.i/ha treated at 1.6-leaf stage measured after 26 days by outdoor concrete pot test; assay type: functional
Rotala indica [13] = test: Herbicidal activity against Rotala indica at 100 g a.i/ha treated at emergence stage measured after 26 days by outdoor concrete pot test; assay type: functional
Rotala indica [14] = test: Herbicidal activity against Rotala indica at 200 g a.i/ha treated at emergence stage measured after 26 days by outdoor concrete pot test; assay type: functional
Lindernia procumbens [15] = test: Herbicidal activity against Lindernia procumbens at 200 g a.i/ha treated at 2.3-leaf stage measured after 26 days by outdoor concrete pot test; assay type: functional
Lindernia procumbens [16] = test: Herbicidal activity against Lindernia procumbens at 300 g a.i/ha treated at 2.3-leaf stage measured after 26 days by outdoor concrete pot test; assay type: functional
Lindernia procumbens [17] = test: Herbicidal activity against Lindernia procumbens at 100 g a.i/ha treated at 1.6-leaf stage measured after 26 days by outdoor concrete pot test; assay type: functional
Lindernia procumbens [18] = test: Herbicidal activity against Lindernia procumbens at 200 g a.i/ha treated at 1.6-leaf stage measured after 26 days by outdoor concrete pot test; assay type: functional
Lindernia procumbens [19] = test: Herbicidal activity against Lindernia procumbens at 100 g a.i/ha treated at emergence stage measured after 26 days by outdoor concrete pot test; assay type: functional
Lindernia procumbens [20] = test: Herbicidal activity against Lindernia procumbens at 200 g a.i/ha treated at emergence stage measured after 26 days by outdoor concrete pot test; assay type: functional
Pontederia vaginalis [21] = test: Herbicidal activity against Monochoria vaginalis at 200 g a.i/ha treated at 2.3-leaf stage measured after 26 days by outdoor concrete pot test; assay type: functional
Pontederia vaginalis [22] = test: Herbicidal activity against Monochoria vaginalis at 300 g a.i/ha treated at 2.3-leaf stage measured after 26 days by outdoor concrete pot test; assay type: functional
Pontederia vaginalis [23] = test: Herbicidal activity against Monochoria vaginalis at 100 g a.i/ha treated at 1.6-leaf stage measured after 26 days by outdoor concrete pot test; assay type: functional
Pontederia vaginalis [24] = test: Herbicidal activity against Monochoria vaginalis at 200 g a.i/ha treated at 1.6-leaf stage measured after 26 days by outdoor concrete pot test; assay type: functional
Pontederia vaginalis [25] = test: Herbicidal activity against Monochoria vaginalis at 100 g a.i/ha treated at emergence stage measured after 26 days by outdoor concrete pot test; assay type: functional
Echinochloa oryzicola [26] = test: Herbicidal activity against Echinochloa oryzicola at 300 g a.i/ha treated at 2.3-leaf stage measured after 26 days by outdoor concrete pot test; assay type: functional
Echinochloa oryzicola [27] = test: Herbicidal activity against Echinochloa oryzicola at 200 g a.i/ha treated at 2.3-leaf stage measured after 26 days by outdoor concrete pot test; assay type: functional
Echinochloa oryzicola [28] = test: Herbicidal activity against Echinochloa oryzicola at 100 g a.i/ha treated at 1.6-leaf stage measured after 26 days by outdoor concrete pot test; assay type: functional
Echinochloa oryzicola [29] = test: Herbicidal activity against Echinochloa oryzicola at 200 g a.i/ha treated at 1.6-leaf stage measured after 26 days by outdoor concrete pot test; assay type: functional
Oryza sativa [30] = test: Phytotoxicity against Oryza sativa cv. Kinuhikari (rice) at 200 g a.i/ha treated at 1.6-leaf stage measured after 26 days by outdoor concrete pot test; assay type: organism-based; conditions: in vivo, other, 624 h
Oryza sativa [31] = test: Phytotoxicity against Oryza sativa cv. Kinuhikari (rice) at 100 g a.i/ha treated at emergence stage measured after 26 days by outdoor concrete pot test; assay type: organism-based; conditions: in vivo, other, 624 h
Oryza sativa [32] = test: Phytotoxicity against Oryza sativa cv. Kinuhikari (rice) at 200 g a.i/ha treated at emergence stage measured after 26 days by outdoor concrete pot test; assay type: organism-based; conditions: in vivo, other, 624 h
Elatine triandra [33] = test: Herbicidal activity against Elatine triandra at 200 g a.i/ha treated at 2.3-leaf stage measured after 26 days by outdoor concrete pot test; assay type: functional
Elatine triandra [34] = test: Herbicidal activity against Elatine triandra at 300 g a.i/ha treated at 2.3-leaf stage measured after 26 days by outdoor concrete pot test; assay type: functional
Elatine triandra [35] = test: Herbicidal activity against Elatine triandra at 100 g a.i/ha treated at 1.6-leaf stage measured after 26 days by outdoor concrete pot test; assay type: functional
Elatine triandra [36] = test: Herbicidal activity against Elatine triandra at 200 g a.i/ha treated at 1.6-leaf stage measured after 26 days by outdoor concrete pot test; assay type: functional
Pontederia vaginalis [37] = test: Herbicidal activity against Monochoria vaginalis at 200 g a.i/ha treated at emergence stage measured after 26 days by outdoor concrete pot test; assay type: functional
[38] = tested on: Schoenoplectiella juncoides; test: Herbicidal activity against Schoenoplectiella juncoides at 200 g a.i/ha treated at 2.3-leaf stage measured after 26 days by outdoor concrete pot test; assay type: functional
[39] = tested on: Schoenoplectiella juncoides; test: Herbicidal activity against Schoenoplectiella juncoides at 300 g a.i/ha treated at 2.3-leaf stage measured after 26 days by outdoor concrete pot test; assay type: functional
[40] = tested on: Schoenoplectiella juncoides; test: Herbicidal activity against Schoenoplectiella juncoides at 100 g a.i/ha treated at 1.6-leaf stage measured after 26 days by outdoor concrete pot test; assay type: functional
[41] = tested on: Schoenoplectiella juncoides; test: Herbicidal activity against Schoenoplectiella juncoides at 200 g a.i/ha treated at 1.6-leaf stage measured after 26 days by outdoor concrete pot test; assay type: functional
[42] = tested on: Schoenoplectiella juncoides; test: Herbicidal activity against Schoenoplectiella juncoides at 100 g a.i/ha treated at emergence stage measured after 26 days by outdoor concrete pot test; assay type: functional
[43] = tested on: Schoenoplectiella juncoides; test: Herbicidal activity against Schoenoplectiella juncoides at 200 g a.i/ha treated at emergence stage measured after 26 days by outdoor concrete pot test; assay type: functional
Elatine triandra [44] = test: Herbicidal activity against Elatine triandra compound treated at 1 to 2.2-leaf stage measured after 26 days by outdoor concrete pot test; assay type: functional
Oryza sativa [45] = test: Phytotoxicity against Oryza sativa cv. Kinuhikari (rice) planted at 3 cm depth measured after 26 days; assay type: organism-based; conditions: in vivo, 624 h
Rotala indica [46] = test: Herbicidal activity against Rotala indica compound treated at 1 to 2.2-leaf stage measured after 26 days by outdoor concrete pot test; assay type: functional
Lindernia procumbens [47] = test: Herbicidal activity against Lindernia procumbens compound treated at 1 to 2.2-leaf stage measured after 26 days by outdoor concrete pot test; assay type: functional
Echinochloa oryzicola [48] = test: Herbicidal activity against Echinochloa oryzicola compound treated at 2.5-leaf stage measured after 26 days by outdoor concrete pot test; assay type: functional
[49] = tested on: Schoenoplectiella juncoides; test: Herbicidal activity against Schoenoplectiella juncoides compound treated at 0.5-leaf stage measured after 26 days by outdoor concrete pot test; assay type: functional
Echinochloa oryzicola [50] = test: Herbicidal activity against Echinochloa oryzicola compound treated at emergence stage measured after 26 days by outdoor concrete pot test; assay type: functional
Oryza sativa [51] = test: Phytotoxicity against Oryza sativa cv. Kinuhikari (rice) at 200 g a.i/ha treated at 2.3-leaf stage measured after 26 days by outdoor concrete pot test; assay type: organism-based; conditions: in vivo, other, 624 h
Oryza sativa [52] = test: Phytotoxicity against Oryza sativa cv. Kinuhikari (rice) at 300 g a.i/ha treated at 2.3-leaf stage measured after 26 days by outdoor concrete pot test; assay type: organism-based; conditions: in vivo, other, 624 h
Oryza sativa [53] = test: Phytotoxicity against Oryza sativa cv. Kinuhikari (rice) at 100 g a.i/ha treated at 1.6-leaf stage measured after 26 days by outdoor concrete pot test; assay type: organism-based; conditions: in vivo, other, 624 h
Pontederia vaginalis [54] = test: Herbicidal activity against Monochoria vaginalis compound treated at 1.5-leaf stage measured after 26 days by outdoor concrete pot test; assay type: functional
Rotala indica [55] = test: Herbicidal activity against Rotala indica at 300 g a.i/ha treated at 1.6-leaf stage measured after 26 days by outdoor concrete pot test; assay type: functional
Elatine triandra [56] = test: Herbicidal activity against Elatine triandra at 300 g a.i/ha treated at 1.6-leaf stage measured after 26 days by outdoor concrete pot test; assay type: functional
Lindernia procumbens [57] = test: Herbicidal activity against Lindernia procumbens at 300 g a.i/ha treated at 1.6-leaf stage measured after 26 days by outdoor concrete pot test; assay type: functional
[58] = tested on: Schoenoplectiella juncoides; test: Herbicidal activity against Schoenoplectiella juncoides at 300 g a.i/ha treated at 1.6-leaf stage measured after 26 days by outdoor concrete pot test; assay type: functional
Pontederia vaginalis [59] = test: Herbicidal activity against Monochoria vaginalis at 300 g a.i/ha treated at 1.6-leaf stage measured after 26 days by outdoor concrete pot test; assay type: functional
Echinochloa oryzicola [60] = test: Herbicidal activity against Echinochloa oryzicola at 300 g a.i/ha treated at 1.6-leaf stage measured after 26 days by outdoor concrete pot test; assay type: functional

CN(C)C(=O)OC(c1cnccc1C(F)(F)F)c1cnccc1C(F)(F)F
ED20 (Oryza sativa [1]): < 250 gAi/ha | ED80 [2]: 63 gAi/ha | ED80 (Echinochloa oryzicola [3]): 63 gAi/ha

CN(C)C(=O)OC(c1cnccc1C(F)(F)F)c1cccc2ccccc12 (racemic)
Efficacy (Echinochloa oryzicola [4]): 100% | Efficacy (Echinochloa oryzicola [5]): 100% | ED20 (Oryza sativa [1]): 2000 gAi/ha | ED80 [2]: 250 gAi/ha | ED80 (Echinochloa oryzicola [6]): 125 gAi/ha | ED80 (Echinochloa oryzicola [3]): 31 gAi/ha | Efficacy (Elatine triandra [7]): 100% | Efficacy (Elatine triandra [8]): 100% | Efficacy (Rotala indica [9]): 100% | Efficacy (Rotala indica [10]): 100% | Efficacy (Rotala indica [11]): 100% | Efficacy (Rotala indica [12]): 100% | Efficacy (Rotala indica [13]): 100% | Efficacy (Rotala indica [14]): 100% | Efficacy (Lindernia procumbens [15]): 100% | Efficacy (Lindernia procumbens [16]): 100% | Efficacy (Lindernia procumbens [17]): 100% | Efficacy (Lindernia procumbens [18]): 100% | Efficacy (Lindernia procumbens [19]): 100% | Efficacy (Lindernia procumbens [20]): 100% | Efficacy (Pontederia vaginalis [21]): 99% | Efficacy (Pontederia vaginalis [22]): 100% | Efficacy (Pontederia vaginalis [23]): 89% | Efficacy (Pontederia vaginalis [24]): 100% | Efficacy (Pontederia vaginalis [25]): 100% | Efficacy (Echinochloa oryzicola [26]): 95% | Efficacy (Echinochloa oryzicola [27]): 95% | Efficacy (Echinochloa oryzicola [28]): 95% | Efficacy (Echinochloa oryzicola [29]): 95% | Efficacy (Oryza sativa [30]): 0% | Efficacy (Oryza sativa [31]): 11% | Efficacy (Oryza sativa [32]): 16% | Efficacy (Elatine triandra [33]): 100% | Efficacy (Elatine triandra [34]): 100% | Efficacy (Elatine triandra [35]): 100% | Efficacy (Elatine triandra [36]): 100% | Efficacy (Pontederia vaginalis [37]): 100% | Efficacy [38]: 0% | Efficacy [39]: 0% | Efficacy [40]: 0% | Efficacy [41]: 0% | Efficacy [42]: 0% | Efficacy [43]: 0% | ED80 (Elatine triandra [44]): 100 gAi/ha | ED20 (Oryza sativa [45]): 2000 gAi/ha | ED80 (Rotala indica [46]): 100 gAi/ha | ED80 (Lindernia procumbens [47]): 100 gAi/ha | ED80 (Echinochloa oryzicola [48]): 125 gAi/ha | ED80 [49]: 250 gAi/ha | ED80 (Echinochloa oryzicola [50]): 31 gAi/ha | Efficacy (Oryza sativa [51]): 0% | Efficacy (Oryza sativa [52]): 6% | Efficacy (Oryza sativa [53]): 0%

CN(C)C(=O)OC(c1cnccc1C(F)(F)F)c1cccc2ccccc12 (single isomer, unassigned; (+))
ED20 (Oryza sativa [45]): 1000 gAi/ha | ED80 [49]: >500 gAi/ha | ED80 (Echinochloa oryzicola [50]): 125 gAi/ha

CN(C)C(=O)OC(c1cnccc1C(F)(F)F)c1cccc2ccccc12 (single isomer, unassigned; (-))
ED80 (Elatine triandra [44]): <63 gAi/ha | ED20 (Oryza sativa [45]): 500 gAi/ha | ED80 (Rotala indica [46]): <63 gAi/ha | ED80 (Lindernia procumbens [47]): <63 gAi/ha | ED80 (Pontederia vaginalis [54]): <100 gAi/ha | ED80 (Echinochloa oryzicola [48]): <63 gAi/ha | ED80 [49]: 125 gAi/ha | ED80 (Echinochloa oryzicola [50]): <31 gAi/ha

CCN(CC)C(=O)n1cnc(S(=O)(=O)c2c(C)cc(C)cc2C)n1 [CAFENSTROLE]
Efficacy (Rotala indica [10]): 99% | Efficacy (Lindernia procumbens [16]): 99% | Efficacy (Pontederia vaginalis [22]): 0% | Efficacy (Echinochloa oryzicola [26]): 95% | Efficacy (Elatine triandra [34]): 99% | Efficacy [39]: 0% | Efficacy (Rotala indica [55]): 100% | Efficacy (Elatine triandra [56]): 100% | Efficacy (Lindernia procumbens [57]): 100% | Efficacy [58]: 0% | Efficacy (Pontederia vaginalis [59]): 50% | Efficacy (Echinochloa oryzicola [60]): 100% | Efficacy (Oryza sativa [52]): 0%
